Reference: publication PMC4910235, “Selenophene and thiophene-core estrogen receptor ligands that inhibit motility and development of parasitic stages of Haemonchus contortus” (Parasites & Vectors, 2016)
Like-named read-outs stand apart in the source and are kept apart here.

Key:
[1] = system: development of xL3s to L4s of H. contortus; assay: L4 development assay (xL3 to L4); format: cell-based; conditions: Haemonchus contortus, 168 h, read-out: L4 development (IC50s in μM)
Procedure: The selenophene and thiophene-core ligands (n = 74) (Additional file 1) were screened at a concentration of 20 μM on exsheathed third-stage larvae (xL3s) of H. contortus in 96-well microculture plates (cat. no. 3635; Corning 3650, Life Sciences, Corning, USA) using relevant control compounds (i.e. moxidectin and monepantel), as described previously. In brief, compounds were dissolved to a stock concentration of 10 mM in either dimethyl sulfoxide (DMSO) or methanol (Sigma-Adrich Scientific, St. Louis, USA). These ligands were then individually diluted to the final concentration of 20 μM using Luria Bertani medium (LB) supplemented with 100 IU/ml of penicillin, 100 μg/ml of streptomycin and 2.5 μg/ml of amphotericin (LB*). Compounds were dispensed (in triplicate) into the wells of a 96-well microculture plate using a multichannel pipette. In addition, the negative controls (LB*, LB* + 0.5 % solvent; six wells each), and positive controls (20 μM of monepantel; Zolvix, Novartis Animal Health, Basel, Switzerland and 20 μM of moxidectin; Cydectin, Virbac, Carros, France; triplicate wells) and xL3s (~300/well) were dispensed into wells of the plate using an automated multichannel pipette (Viaflo Assist/II, Integra Biosciences, Zizers, Switzerland). Following a 72 h incubation at 38 °C and 10 % CO2, a video recording (5 s) was taken of each well of the 96-well microculture plate (containing xL3s) using a greyscale camera (Rolera Bolt CMOS, Qimaging Scientific, Surrey, Canada) and a motorised X-Y axis stage (BioPoint 2, Ludl Electronics Products, Hawthorne, USA). Individual videos were processed to calculate a motility index (MI) using an algorithm described previously. MIs were normalised to the negative and positive controls (to remove plate-to-plate variation) using the program Prism (v.6 GraphPad Software, USA). Z’-scores were calculated to validate the performance of the screening assay; reliable assays achieve Z’-scores of between 0.5 and 1 [28]. A compound was recorded as having an activity if it reduced xL3 motility by ≥ 70 % following incubation for 72 h. […] Compounds that reduced the motility of xL3s were also tested for their ability to inhibit the motility of L4s (same protocol as for xL3s) and/or to affect the development of xL3s to L4s. Following the measurement of L4 motility, larvae were re-incubated for 4 more days and fixed with 1 % iodine (50 μl). Then, L4 development was assessed based on the presence of a well-developed mouth/pharynx using a light microscope and expressed as a percentage of the total number of larvae examined (n = 30).
All assays (to assess xL3 motility, L4 development and L4 motility) were performed in triplicate, three times, on separate days.

[2] = system: xL3 stage of H. contortus; assay: Scanning electron microscopy of treated xL3s; format: cell-based, Haemonchus contortus; conditions: 100 μM, 24 h
Procedure: SEM was used to assess whether compounds that reduced motility by ≥ 70 % caused structural damage to the larval stages. The xL3s and L4s were cultivated as described previously. Compounds were diluted to a final concentration of 100 μM in LB*, and 50 μl were transferred to wells of a 96-well microculture plate; six wells were used for each treatment and for the negative control which contained LB* and 1 % methanol (AR1115-P2.5 L, RCI; Labscan Limited). The xL3s and L4s were resuspended in LB* at a density of ~6,000 per ml, and 50 μl were transferred into individual wells. Compounds were incubated with the larvae for 24 h at 38 °C and 10 % CO2. Following incubation, for each treatment, the larvae from each of the six wells were pooled into 1.5 ml Eppendorf tubes, washed 3 times in 0.9 % saline at 9,000 g and resuspended in 1 ml of phosphate-buffered saline (PBS). Subsequently, the larvae were fixed in 2.5 % glutaraldehyde in PBS for 2 h at room temperature, rinsed three times in PBS for 15 min, and then post-fixed in 1 % osmium tetroxide for 2 h at room temperature. Fixed larvae were rinsed again 3 times in PBS for 15 min. Then, aliquots of concentrated larvae (200 μl) were incubated on polyethyleneimine (PEI)-coated glass coverslips (pre-prepared by smearing 22 mm square glass coverslips with a 0.1 % solution of PEI and dried by heat under a cool flame). Following this incubation, the excess supernatant was removed, and the coverslips with adhered nematodes were dehydrated in increasing concentrations of ethanol (10, 30, 50, 70, 90 and 100 %) in water for 30 min. The coverslips were dried in a critical point dryer (EM CPD030, Leica, Wetzlar, Germany) and mounted on to aluminium stubs (25 mm) with double-sided carbon tabs. The coverslips were then coated with gold using a Xenosput sputter coater (Dynavac, Australia). The larvae on the coverslips were imaged using a field-emission scanning electron microscope (XL30 Philips, Netherlands) at 2.0 kV using a spot size of two; 12 representative images were taken of each sample.

Row | Structure (SMILES) | IC50 ([1]; 7 days) | structural damage of xL3s by SEM [2] | IC50 [1]
1 | Oc1ccc(-c2ccc(-c3ccc(O)cc3Cl)[se]2)c(Cl)c1 [WZY-2] |  | no structural damage | 12.2 µM
2 | CO/N=C1\C[C@]2(C[C@@H]3C[C@@H](C/C=C(\C)C[C@@H](C)/C=C/C=C4\CO[C@@H]5[C@H](O)C(C)=C[C@@H](C(=O)O3)[C@]45O)O2)O[C@H](/C(C)=C/C(C)C)[C@H]1C [Moxidectin, reference compound] | 12.3 µM |  | 

Now from value to compound, other results behind:

Row | IC50 ([1]; 7 days) | Structure (SMILES) | structural damage of xL3s by SEM [2] | IC50 [1]
3 | 0.4 µM | C[C@](C#N)(COc1cc(C#N)ccc1C(F)(F)F)NC(=O)c1ccc(SC(F)(F)F)cc1 [Monepantel, reference compound] |  | 
4 | 13.7 µM | Oc1ccc(-c2cscc2-c2ccc(O)cc2Cl)c(Cl)c1 [MJ-17] | no structural damage | 
5 | 10.5 µM | Cc1cc(O)ccc1-c1ccc(-c2ccc(O)cc2F)s1 [MJ-22] | no structural damage | 
